Assay results from ChEMBL document CHEMBL1201862, “PubChem BioAssay data set” (2004).
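These data come from cells grown in 96-well plates and exposed to compound for 48 hours at five concentrations. The concentration for 50% growth inhibition is given as GI50.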 Active and inactive are the calls of the source. No stated cut-off is given here; in the data, active = GI50 up to about 1.1 µM and inactive = higher.

Tests used:
Experiment in all cases: NCI-60 cell line screen, 48 h
SW-620 = system: SW-620
SK-MEL-5 = system: SK-MEL-5
NCI-H23 = system: NCI-H23
HCT-116 = system: HCT-116
COLO 205 = system: COLO 205
OVCAR-8 = system: OVCAR-8
Hs-578T = system: Hs-578T
786-0 = system: 786-0
K562 = system: K562
KM12 = system: KM12
NCI-H522 = system: NCI-H522
IGROV-1 = system: IGROV-1
SNB-75 = system: SNB-75
UACC-257 = system: UACC-257
MDA-MB-231 = system: MDA-MB-231
NCI-H226 = system: NCI-H226
A498 = system: A498
U-251 = system: U-251
Malme-3M = system: Malme-3M
BT-549 = system: BT-549

| Compound | GI50 (SW-620) | GI50 (SK-MEL-5) | GI50 (NCI-H23) | GI50 (HCT-116) | GI50 (COLO 205) | GI50 (OVCAR-8) | GI50 (Hs-578T) | GI50 (786-0) | GI50 (K562) | GI50 (KM12) | GI50 (NCI-H522) | GI50 (IGROV-1) | GI50 (SNB-75) | GI50 (UACC-257) | GI50 (MDA-MB-231) | GI50 (NCI-H226) | GI50 (A498) | GI50 (U-251) | GI50 (Malme-3M) | GI50 (BT-549) |
| --- | --- | --- | --- | --- | --- | --- | --- | --- | --- | --- | --- | --- | --- | --- | --- | --- | --- | --- | --- | --- |
| CC1C(c2ccc3c(c2)OCO3)c2cc3c(cc2OC1N1CCCC1)OCO3 (stereo unspecified) | 32.5 µM (inactive) | 17.7 µM (inactive) | 38.7 µM (inactive) | 18 µM (inactive) | 31.6 µM (inactive) | 35.8 µM (inactive) | 10.6 µM (inactive) | 45.5 µM (inactive) | 24.4 µM (inactive) | 37.7 µM (inactive) | 18 µM (inactive) | 30.3 µM (inactive) | 15.1 µM (inactive) | 34.5 µM (inactive) | – | – | – | – | – | – |
| Cc1nc(SCC(N)=O)c2sc(=S)n(-c3ccccc3)c2n1 | > 10 µM (inactive) | > 10 µM (inactive) | > 10 µM (inactive) | > 10 µM (inactive) | > 10 µM (inactive) | > 10 µM (inactive) | > 10 µM (inactive) | > 10 µM (inactive) | > 10 µM (inactive) | > 10 µM (inactive) | > 10 µM (inactive) | > 10 µM (inactive) | > 10 µM (inactive) | > 10 µM (inactive) | > 10 µM (inactive) | > 10 µM (inactive) | > 10 µM (inactive) | > 10 µM (inactive) | > 10 µM (inactive) | – |
| COc1ccccc1C(N)c1ccccc1 (stereo unspecified) | > 100 µM (inactive) | > 100 µM (inactive) | > 100 µM (inactive) | > 100 µM (inactive) | > 100 µM (inactive) | > 100 µM (inactive) | – | > 100 µM (inactive) | > 100 µM (inactive) | > 100 µM (inactive) | > 100 µM (inactive) | > 100 µM (inactive) | 95.9 µM (inactive) | > 100 µM (inactive) | – | > 100 µM (inactive) | > 100 µM (inactive) | > 100 µM (inactive) | > 100 µM (inactive) | – |
| O=C(CSc1nc2ccc(I)cc2c(=O)n1Cc1ccccc1)NN1C(=O)CCC1=O | 75.2 µM (inactive) | 48.4 µM (inactive) | 17.6 µM (inactive) | 43.3 µM (inactive) | 34 µM (inactive) | 37.6 µM (inactive) | – | 52.7 µM (inactive) | 33.3 µM (inactive) | 37.2 µM (inactive) | 20.4 µM (inactive) | 29.9 µM (inactive) | 36.3 µM (inactive) | 45 µM (inactive) | 32.4 µM (inactive) | 27.3 µM (inactive) | – | 41.2 µM (inactive) | – | – |
| Oc1c2cc(Cl)cc1COCc1cc(Cl)cc(c1O)COCc1cc(Cl)cc(c1O)COC2 | > 100 µM (inactive) | > 100 µM (inactive) | 20.8 µM (inactive) | 8.13 µM (inactive) | 89.5 µM (inactive) | 11.8 µM (inactive) | – | 9.42 µM (inactive) | 67.5 µM (inactive) | 84.3 µM (inactive) | – | 17 µM (inactive) | 17.8 µM (inactive) | > 100 µM (inactive) | – | 30.5 µM (inactive) | 82.8 µM (inactive) | 29.4 µM (inactive) | – | 31.3 µM (inactive) |
| COc1ccc(C(=O)/C=C/c2ccc(OCCCOc3ccc(/C=C/C(=O)c4ccc(OC)c(OC)c4)cc3)cc2)cc1OC | > 100 µM (inactive) | > 100 µM (inactive) | – | > 100 µM (inactive) | > 100 µM (inactive) | > 100 µM (inactive) | > 100 µM (inactive) | > 100 µM (inactive) | > 100 µM (inactive) | > 100 µM (inactive) | – | > 100 µM (inactive) | > 100 µM (inactive) | > 100 µM (inactive) | > 100 µM (inactive) | > 100 µM (inactive) | – | > 100 µM (inactive) | – | – |
| Cc1cc(S(=O)(=O)/N=C2\NCCN2Cc2ccccc2)c(S)cc1Cl | > 100 µM (inactive) | > 100 µM (inactive) | > 100 µM (inactive) | > 100 µM (inactive) | > 100 µM (inactive) | > 100 µM (inactive) | – | > 100 µM (inactive) | > 100 µM (inactive) | > 100 µM (inactive) | 40.6 µM (inactive) | > 100 µM (inactive) | > 100 µM (inactive) | > 100 µM (inactive) | > 100 µM (inactive) | 61.2 µM (inactive) | – | > 100 µM (inactive) | 43.7 µM (inactive) | > 100 µM (inactive) |
| N/C(=N\O)N/N=C/c1ccc2c(c1)OCO2 | 63.4 µM (inactive) | 15.4 µM (inactive) | 27 µM (inactive) | 21.1 µM (inactive) | 4.74 µM (inactive) | 12.5 µM (inactive) | > 100 µM (inactive) | 12.9 µM (inactive) | 18.5 µM (inactive) | 7.55 µM (inactive) | 38.5 µM (inactive) | 25 µM (inactive) | – | 39.5 µM (inactive) | 38.5 µM (inactive) | 10.8 µM (inactive) | 21 µM (inactive) | 36.6 µM (inactive) | 17.5 µM (inactive) | – |
| Cc1ccc(NC(=O)CCC(=O)C2CC(=O)CC/C2=N\NC(=O)c2cc3ccccc3cc2O)cc1C (stereo unspecified) | 25.6 µM (inactive) | 14.5 µM (inactive) | 15.7 µM (inactive) | 19.6 µM (inactive) | 16.9 µM (inactive) | 24.7 µM (inactive) | – | 25.8 µM (inactive) | 8.18 µM (inactive) | 31.8 µM (inactive) | 16.6 µM (inactive) | 15.5 µM (inactive) | 17.1 µM (inactive) | 20.7 µM (inactive) | – | 23 µM (inactive) | 38.4 µM (inactive) | 40.1 µM (inactive) | 30.4 µM (inactive) | – |
| CC1=CC2=C(OCO1)C(=O)c1ccccc1C2=O | 8.09 µM (inactive) | 1.5 µM (inactive) | 3.27 µM (inactive) | 7.16 µM (inactive) | 5.86 µM (inactive) | 8.87 µM (inactive) | 1.67 µM (inactive) | 12.8 µM (inactive) | 6.87 µM (inactive) | 6.71 µM (inactive) | 2.57 µM (inactive) | 11 µM (inactive) | 3.66 µM (inactive) | 2.79 µM (inactive) | 4.13 µM (inactive) | 10.4 µM (inactive) | 14.5 µM (inactive) | 1.36 µM (inactive) | 2.51 µM (inactive) | – |
| Cc1cn(C2CC(N/C(=N/C#N)NCC3OC(n4cnc5c(N)ncnc54)CC3O)C(CO)O2)c(=O)[nH]c1=O (stereo unspecified) | > 100 µM (inactive) | > 100 µM (inactive) | > 100 µM (inactive) | > 100 µM (inactive) | > 100 µM (inactive) | > 100 µM (inactive) | > 100 µM (inactive) | > 100 µM (inactive) | > 100 µM (inactive) | > 100 µM (inactive) | > 100 µM (inactive) | > 100 µM (inactive) | > 100 µM (inactive) | > 100 µM (inactive) | > 100 µM (inactive) | > 100 µM (inactive) | > 100 µM (inactive) | > 100 µM (inactive) | > 100 µM (inactive) | – |
| O=C(/C=C\c1ccccc1)N1CCc2ccccc2C1 | 63.5 µM (inactive) | 17.1 µM (inactive) | 14.9 µM (inactive) | 34.6 µM (inactive) | 20.6 µM (inactive) | 51.9 µM (inactive) | 60.7 µM (inactive) | 87.5 µM (inactive) | 19.4 µM (inactive) | 36.5 µM (inactive) | – | 73.8 µM (inactive) | 52.7 µM (inactive) | 38.9 µM (inactive) | > 100 µM (inactive) | > 100 µM (inactive) | 53.2 µM (inactive) | 80.7 µM (inactive) | – | – |
| CN(C)C1(N(C)C)Oc2c(c(=O)n(C)c(=O)n2C)C(c2ccccc2)C1(F)F (stereo unspecified) | > 100 µM (inactive) | > 100 µM (inactive) | > 100 µM (inactive) | > 100 µM (inactive) | > 100 µM (inactive) | – | – | > 100 µM (inactive) | > 100 µM (inactive) | > 100 µM (inactive) | – | – | > 100 µM (inactive) | > 100 µM (inactive) | > 100 µM (inactive) | > 100 µM (inactive) | > 100 µM (inactive) | > 100 µM (inactive) | – | > 100 µM (inactive) |
| Cc1ccc(C2SCC(=O)N2NC(=O)c2ccncc2)s1 (stereo unspecified) | > 100 µM (inactive) | > 100 µM (inactive) | > 100 µM (inactive) | > 100 µM (inactive) | > 100 µM (inactive) | > 100 µM (inactive) | – | > 100 µM (inactive) | > 100 µM (inactive) | > 100 µM (inactive) | > 100 µM (inactive) | > 100 µM (inactive) | – | > 100 µM (inactive) | > 100 µM (inactive) | > 100 µM (inactive) | > 100 µM (inactive) | > 100 µM (inactive) | > 100 µM (inactive) | > 100 µM (inactive) |
| [N-]=[N+]=Nc1c(Cc2ccccc2)c(=O)oc2ccccc12 | 14.8 µM (inactive) | 2.67 µM (inactive) | 26.4 µM (inactive) | > 10 µM (inactive) | 36.9 µM (inactive) | – | 19.1 µM (inactive) | 40.6 µM (inactive) | 18.6 µM (inactive) | – | – | 21.5 µM (inactive) | 28.6 µM (inactive) | 45.8 µM (inactive) | 39.3 µM (inactive) | – | – | 24.4 µM (inactive) | 38.3 µM (inactive) | 24.5 µM (inactive) |
| C=C1C(=O)C23C(O)CC4C(C)(C)CCC(O)C4(C)C2CC(OC(C)=O)C1[C@H]3O (stereo partly specified) | 1.01 µM (active) | – | 2.44 µM (inactive) | 2 µM (inactive) | 1.98 µM (inactive) | 1.22 µM (inactive) | 24 µM (inactive) | 2.4 µM (inactive) | 1.84 µM (inactive) | 15.8 µM (inactive) | 0.123 µM (active) | 4.79 µM (inactive) | 8.61 µM (inactive) | 3.28 µM (inactive) | 3.27 µM (inactive) | 9.31 µM (inactive) | 15.8 µM (inactive) | 8.81 µM (inactive) | 3.37 µM (inactive) | – |
